Test results published in paper PMC10018702 (Nature chemistry, 2022).

Experiments:
[1] = test system: cancer cell proliferation; settings: cited from earlier work
[2] = mouse, in vivo, ip, 2 mg/kg
[3] = molecular target: T1, eEF1A ternary complex on human ribosomes (Homo sapiens, UniProt P68104); experiment: smFRET drug chase experiments; type: binding
T1 sequence (P68104 1-462): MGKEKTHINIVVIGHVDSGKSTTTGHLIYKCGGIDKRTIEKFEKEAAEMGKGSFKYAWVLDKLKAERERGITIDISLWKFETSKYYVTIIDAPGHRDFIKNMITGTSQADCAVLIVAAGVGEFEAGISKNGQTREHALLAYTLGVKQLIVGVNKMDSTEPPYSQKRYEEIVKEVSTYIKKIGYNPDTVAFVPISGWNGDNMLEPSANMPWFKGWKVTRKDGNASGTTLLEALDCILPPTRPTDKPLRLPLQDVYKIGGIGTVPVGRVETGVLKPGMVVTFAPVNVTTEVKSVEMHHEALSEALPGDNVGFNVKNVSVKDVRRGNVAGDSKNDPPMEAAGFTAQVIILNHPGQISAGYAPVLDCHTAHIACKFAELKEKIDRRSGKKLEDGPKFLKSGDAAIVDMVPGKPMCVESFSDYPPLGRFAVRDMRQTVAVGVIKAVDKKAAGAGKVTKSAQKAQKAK

Eμ-Myc/+ lymphoma cells = experiment: Eμ-Myc lymphoma allograft model; settings: 1.5 or 2.0 mg/kg, intraperitoneal, 3 times per week
[4] = molecular target: T1, eEF1A ternary complex on human ribosomes; experiment: smFRET ternary complex real-time delivery experiment; type: biochemical; settings: 10 μM drug delivered with ternary complex, 25 °C
HCT116 cells [5] = experiment: OPP incorporation assay; settings: HCT116, 24 h continuous treatment, then 1-h OPP pulse
HCT116 cells [6] = settings: HCT116, 72 h, alamarBlue
[7] = molecular target: eukaryotic elongation factor-1α (eEF1A) (UniProt P68104); experiment: single-molecule FRET chase
[8] = from rebinding constants, chase with 0-10 μM drug

## C=C[C@H](C)C[C@@H]1NC(=O)[C@H]([C@H](O)C(C)C)N(C)C(=O)[C@H](C)N(C)C(=O)[C@@H]([C@@H](C)CC)NC(=O)[C@@H]([C@H](O)C(C)C)NC(=O)[C@H]2CCCCN2C(=O)[C@H](C)N(C)C1=O [A3]
[1]
  concentration inhibiting cancer cell proliferation: low nanomolar concentrations

## C=C[C@H](C)C[C@@H]1NC(=O)[C@H]([C@H](O)C(C)C)N(C)C(=O)[C@H](C)N(C)C(=O)[C@@H]([C@@H](C)CC)NC(=O)[C@@H]([C@H](O)C(C)C)NC(=O)[C@H]2CCCCN2C(=O)[C@H](C)N(C)C1=O [SR-A3]
[2]
  AUCinf, fold higher than ternatin-4: ~ 2.1 fold
  Cmax, fold higher than ternatin-4: ~ 1.7 fold
[3]; [8]
  rebinding to stalled eEF1A-ribosome complex relative to SS-A3: twice as fast
  rebinding to stalled eEF1A-ribosome complex relative to ternatin-4: four times as fast
[3]; washout into drug-free buffer
  residence time longer than ternatin-4 or SS-A3: about 60%
Eμ-Myc/+ lymphoma cells
  body weight: no significant body weight loss
Eμ-Myc/+ lymphoma cells; both dose groups
  tolerability: well tolerated
Eμ-Myc/+ lymphoma cells; n = 5 per group
  survival of tumor-bearing mice: dramatically prolonged survival
[4]
  aa-tRNA accommodation: strongly inhibited

## C=C[C@H](C)C[C@@H]1NC(=O)[C@H]([C@@H](O)C(C)C)N(C)C(=O)[C@H](C)N(C)C(=O)[C@@H]([C@@H](C)CC)NC(=O)[C@@H]([C@H](O)C(C)C)NC(=O)[C@H]2CCCCN2C(=O)[C@H](C)N(C)C1=O [SS-A3]
HCT116 cells [5]
  potency in protein synthesis inhibition compared with SR-A3: slightly less potent
HCT116 cells [6]
  fold less potent than SR-A3 (HCT116 proliferation IC50): ~ 3 fold
[4]
  aa-tRNA accommodation: strongly inhibited

## ternatin-4 (peptide)
[7]
  residence time: 56 s

## ternatin-4 [reference compound]
HCT116 cells [5]
  potency in protein synthesis inhibition compared with SR-A3: behaved identically
[4]
  aa-tRNA accommodation: strongly inhibited
